# Results as given in US20020045764A1, “Tubulin binding compounds (COBRA)” (Parker Hughes Institute, priority 1998, published 2002).
# Legend:
# [1] = tested on: human tumor cell lines; assay: MTT assays, panel of human tumor cell lines (overall statement); type: cell-based; details: 0.1 to 250 μM
# Method: (§1) The antiproliferative activity of […] and the control mono-THF containing compounds 8.2, 8.3, and 8.4 was examined against a panel of 5 different human tumor cell lines using standard MTT (3-[4,5-dimethylthiazol-2-yl]-2,5-diphenyl tetrazolium bromide) assays^18 (Boehringer Mannheim Corp., Indianapolis, Ind.).
# Briefly, exponentially growing brain tumor cells were seeded into a 96-well plate at a density of 2.5×10^4 cells/well and incubated for 36 hours at 37° C. prior to drug exposure. On the day of treatment, culture medium was carefully aspirated from the wells and replaced with fresh medium containing the test or control compounds at concentrations ranging from 0.1 to 250 μM. Triplicate wells were used for each treatment. The cells were incubated with the various compounds for 24-36 hours at 37° C. in a humidified 5% CO2 atmosphere. To each well, 10 μl of MTT (0.5 mg/ml final concentration) was added and the plates were incubated at 37° C. for 4 hours to allow MTT to form formazan crystals by reacting with metabolically active cells . […] The absorbence of each well was measured in a microplate reader (Labsystems) at 540 nm and a reference wavelength of 690 nm. […] The percent survival was calculated using the formula: % survival=Live cell number[test]×100/Live cell number[control]. […]
# [2] = tested on: zebrafish (ZF) (Danio rerio) embryos; assay: Zebrafish embryo model, cell division and development; type: in vivo
# Method: ZF eggs were removed from their chorions by mild digestion in 1% Trypsin-EDTA (Sigma) for 10 minutes at 28.5° C. (Standard temperature—ST), washed three times in “egg water”^15-16 and twice in “embryonic medium” (EM)^15-16. The dechorionated two-cell stage cleaving eggs/embryos were transferred to the 24-well plastic cell culture plates (Costar, City, State) filled with EM or Hank's Balanced Salt Saline (HBSS, Gibco, City, State). Dechorionated embryos (10-12 per well) were exposed to the drugs at a constant ST for 0.5-24 hours. The final volume of the media in each well was 500 μL. All reference as well as test compounds were used at concentrations ranging from 10 μM to 4 mM. The title compounds were dissolved in DMSO and then diluted serially with the incubation medium. The final concentration of DMSO in the wells was 1.2% (with the exception of the etoposide treatment where it was 3%). The sham-treated control embryos were incubated in EM or HBSS in the presence of 1.2% (or 3%) DMSO.
# Observations of cell division and development of the ZF embryos were carried out using a SMZ-10A stereo microscope (Nicon, City, State), once every 30 minutes within the first 3 hours of incubation and at 6, 12 and 24 hours, as well. […] The stereo microscope was fitted with a specially designed transparent heating tray in order to keep embryos at ST during observations. Pictures of the embryos were taken with a H-III Photomicrographic System (Nicon) using Ektachrome 64X film (Kodak, Rochester, N.Y.).
# [3] = tested on: SQ20B; assay: MTT assay; type: cell-based, human; details: 24-36 hours
# Method: as §1
# (§2) Briefly, exponentially growing brain tumor cells were seeded into a 96-well plate at a density of 2.5×10^4 cells/well and incubated for 36 hours at 37° C. prior to drug exposure. On the day of treatment, culture medium was carefully aspirated from the wells and replaced with fresh medium containing the test or control compounds at concentrations ranging from 0.1 to 250 μM. Triplicate wells were used for each treatment. The cells were incubated with the various compounds for 24-36 hours at 37° C. in a humidified 5% CO2 atmosphere. To each well, 10 μl of MTT (0.5 mg/ml final concentration) was added and the plates were incubated at 37° C. for 4 hours to allow MTT to form formazan crystals by reacting with metabolically active cells . The formazan crystals were solubilized overnight at 37° C. in a solution containing 10% SDS in 0.01 M HCl. The absorbence of each well was measured in a microplate reader (Labsystems) at 540 nm and a reference wavelength of 690 nm. To translate the OD 540 values into the number of live cells in each well, the OD540 values were compared to those on standard OD540-versus-cell number curves generated for each cell line. The percent survival was calculated using the formula: % survival=Live cell number[test]×100/Live cell number[control].
# (§3) IC50 values were calculated by non-linear regression analysis using an Graphpad Prism software version 2.0 (Graphpad Software, Inc., San Diego, Calif.).
# [4] = tested on: Nalm-6 leukemia cells; assay: Transmission electron microscopy; type: cell-based, human; design: dose or concentration left out as unconfirmed
# [5] = tested on: U373 brain tumor cells; assay: Cytotoxicity by confocal microscopy (tubulin immunofluorescence); type: cell-based, human
# Method: (§4) Cells were incubated at 37° C. for the indicated time periods with the title compounds. At the end of the incubation, cells were washed twice with PBS and fixed in 2% paraformaldehyde. The cells were permeabilized and non-specific binding sites were blocked with 2.5% BSA in PBS containing 0.1% Triton X-100 for 30 minutes. Tubulin expression was examined by immunofluorescence using a monoclonal antibody against α-tubulin (Sigma Chemical Co, St. Louis, Mo.) at a dilution of 1:1000 and an anti-mouse IgG conjugated to FITC. Cells were washed in PBS and counterstained with toto-3 (Molecular Probes Inc., Eugene, Oreg.) for 10 minutes at a dilution of 1:1000. Cells were washed again with PBS and the coverslips were mounted with Vectashield (Vector Labs, Burlingame, Calif.) and viewed with a confocal microscope (Bio-Rad MRC 1024) mounted in a Nikon Labhophot upright microscope. Digital images were saved on a Jaz disk and processed with Adobe Photoshop software (Adobe Systems, Mountain View, Calif.).
# (§5) The ultrastructural changes in human breast and glioblastoma cancer cells treated with COBRA-1 or COBRA-2 were examined by confocal microscopy and by transmission electron microscopy, using methods previously reported^19.
# [6] = tested on: BT-20 breast cancer cells; assay: as above; type: cell-based, human
# Method: as §4, §5
# [7] = molecular target: T1, Bovine brain tubulin (Bos taurus, UniProt P81947+Q6B856); assay: Tubulin turbidity assay (GTP-induced tubulin polymerization); type: biochemical; details: for effect on GTP-dependent tubulin polymerization (turbidity): 1 mg/ml tubulin, 1 mM GTP, 37° C., OD 350 nm
# T1 construct: purchased Sigma, St. Louis, Mo; host or cells: bovine brain (tissue-purified)
# Method: Bovine brain tubulin (Sigma, St. Louis, Mo.) was used in standard turbidity assays to test the effects of compounds COBRA-1 and COBRA-2 as well as control compounds on GTP-induced tubulin polymerization. Compounds (in 1% DMSO) were added to tubulin (1 mg/ml, 0.1M MES, 1 mM EGTA, 0.5 mM MgCl2, 0.1 mM EDTA, 2.5M glycerol, 1 μg/ml leupeptin, 1 μg/ml aprotinin, pH 6.5) followed by stimulation of polymerization with 1 mM GTP at 2 minutes and 1 mM taxol at 30 minutes. Optical density was measured using a Becton Dickinson UV spectrophotometer (350 nm) using a thermostated cuvette holder to keep the reaction at 37° C. Readings obtained from the spectro-photometer were standardized by subtracting the background absorbance of the compound in water from the sample reading following drug addition.
# To test the latitude of the structure at the opposite end of the molecule from the long chain (head region), three new COBRA compounds were synthesized according to the schemes shown below: COBRA-3, COBRA-4, and COBRA-5. Each of these compounds was then tested for tubulin depolymerization activity, using the tubidity assay described in the Examples above.
# Each of these compounds was assayed for effects on GTP-dependent tubulin polymerization, using the methods described above.
# [8] = tested on: U373 brain tumor cells; assay: Two-photon confocal laser scanning microscopy, DiA-labeled cells; type: cell-based, human; details: for cell morphology: U373, 100 μM
# Method: In some experiments, COBRA-1 treated brain tumor cells were labeled with the membrane dye DiA and imaged using multiphoton microscopy. The individual tumor cells were imaged 1 hour before adding 100 μM COBRA- 1. The total imaging period was 3 hours.
# U373 brain tumor cells were labeled with the membrane dye DiA and imaged using two-photon microscopy.
# Arrows denote membrane ruffles formed in the direction that the cell is crawling. Arrowheads denote the trailing edge or the edge where the cell is retracting. The cell was imaged 1 hour before adding 100 μM DDE261 (FIG. 9A). […] The cell continued to shrink throughout the 3 hour imaging period (FIGS. 9E and 9F). The white material in the color photographs is the dye, DiA. The Scale Bar denotes 20 microns.
# [9] = tested on: U87; assay: MTT assay; type: cell-based, human; details: 24-36 hours
# Method: as §1, §2, §3
# (§6) The following human cancer cell lines were used in the present study: BT-20, breast cancer; MDA-MB-231, breast cancer; PC3, prostate cancer; U87 and U373, glioblastoma; NALM-6, B-lineage acute lymphoblastic leukemia. These cell lines were obtained from American Type Culture Collection (Manassas, Va.) and maintained as continuous cell lines in Dulbecco's modified Eagles's medium supplemented with 10% fetal bovine serum and antibiotics.
# [10] = tested on: MDA-MB-231; assay: MTT assay; type: cell-based, human; details: 24-36 hours
# Method: as §1, §2, §3, §6
# [11] = tested on: NALM-6; assay: MTT assay; type: cell-based, human; details: 24-36 hours
# Method: as §1, §2, §3, §6
# [12] = tested on: PC-3; assay: MTT assay; type: cell-based, human; details: 24-36 hours
# Method: as §1, §2, §3, §6
# [13] = tested on: human cell lines; assay: Anti-cancer activity against human cell lines; type: cell-based
# T1 sequence (P81947 whole entry): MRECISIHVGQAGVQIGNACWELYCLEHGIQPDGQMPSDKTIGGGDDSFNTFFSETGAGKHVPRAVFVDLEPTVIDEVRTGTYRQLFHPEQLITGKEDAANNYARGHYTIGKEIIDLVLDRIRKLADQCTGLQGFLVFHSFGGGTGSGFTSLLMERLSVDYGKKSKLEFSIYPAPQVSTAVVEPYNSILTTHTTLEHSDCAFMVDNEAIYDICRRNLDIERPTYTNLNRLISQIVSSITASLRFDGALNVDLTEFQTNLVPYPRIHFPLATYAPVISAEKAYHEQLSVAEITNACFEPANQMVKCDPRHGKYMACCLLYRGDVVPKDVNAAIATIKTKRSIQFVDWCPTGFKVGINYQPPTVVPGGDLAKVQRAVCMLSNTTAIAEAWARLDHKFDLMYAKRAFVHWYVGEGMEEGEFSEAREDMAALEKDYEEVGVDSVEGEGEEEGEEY
# T1 sequence (Q6B856 whole entry): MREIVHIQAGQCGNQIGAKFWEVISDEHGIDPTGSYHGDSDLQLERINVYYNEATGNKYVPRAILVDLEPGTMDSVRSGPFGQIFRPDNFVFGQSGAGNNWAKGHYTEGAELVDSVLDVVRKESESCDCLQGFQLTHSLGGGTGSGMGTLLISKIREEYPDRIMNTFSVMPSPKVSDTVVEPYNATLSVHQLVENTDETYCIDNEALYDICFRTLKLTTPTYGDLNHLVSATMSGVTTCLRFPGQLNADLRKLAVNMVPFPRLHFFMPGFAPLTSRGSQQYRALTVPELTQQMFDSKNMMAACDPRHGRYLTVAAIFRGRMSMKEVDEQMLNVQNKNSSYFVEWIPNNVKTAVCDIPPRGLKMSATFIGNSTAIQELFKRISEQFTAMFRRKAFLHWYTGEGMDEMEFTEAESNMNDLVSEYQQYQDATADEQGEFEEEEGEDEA
smiles,measurement,setting,value
CCCCCCCCCCCC[C@@H](O)[C@H]1CC[C@H](CO)O1 [COBRA-1],inhibition of all cell lines,[1],inhibited by COBRA-1 in a dose-dependent fashion
same,effect on ZF embryo,"[2]; 200 μM, 30 minutes",start of cell fusion
same,effect on ZF embryo,"[2]; 200 μM, 60 minutes","cell division blockade, total fusion and developmental arrest"
same,effect on ZF embryo,"[2]; 400 μM, 30 minutes",deterioration of cell division and start of cell fusion
same,effect on ZF embryo,"[2]; 400 μM, 60 minutes","cell division blockade, total fusion and developmental arrest"
same,effect on two-cell stage ZF embryos,[2]; 200 and 400 μM,"developed normally for 30 minutes, up to the 8-cell stage, and then showed an immediate arrest of proliferation followed by cell fusion"
same,IC50,[3],140 µM
same,ultrastructural changes,[4],"nuclear fragmentation, chromatin condensation, and formation of multiple autophagosomes, consistent with apoptosis"
same,cell morphology / microtubules,"[5]; U373, 100 μM",induces abnormal tubulin structures
same,cell morphology / microtubules,"[5]; U373, 200 μM",cell death with nuclear fragmentation and complete loss of microtubule formation
same,cell morphology / microtubules,"[6]; BT-20, 100 μM, 24 hours",the cells shrink and the microtubules become less organized
same,cell morphology / microtubules,"[6]; BT-20, 200 μM",cell death with nuclear fragmentation and complete loss of microtubule formation
same,effect on GTP-dependent tubulin polymerization (turbidity),[7],caused partial depolymerization of tubulin and inhibited its polymerization in the presence of GTP
same,cell morphology,[8]; after 1 hour,only trailing edges are present
same,cell morphology,[8]; within 40 minutes of drug addition,only one membrane ruffle is still evident
same,onset of induced apoptosis after exposure,[8]; tumor cells (U373),approximately 1 hour
same,time to total destruction,[8]; tumor cells (U373),≤ 24 h
same,IC50,[9],107 µM
same,IC50,[10],77 µM
same,IC50,[11],49 µM
same,IC50,[12],171 µM
"CCCCCCCCCCCCSCC(NC(C)=O)C(=O)CCl (stereo not drawn) [COBRA-5, N-Ac-S-dodecyl-Cys Chloromethyl Ketone]",anti-cancer activity against human cell lines,[13],very potent anti-cancer activity
same,effect on GTP-dependent tubulin polymerization (turbidity),[7],caused partial depolymerization of tubulin and completely inhibited its polymerization in the presence of GTP
same,IC90,"[7]; stated in the tubulin polymerization paragraph, assay not named",10 µM
